Results: paper PMC5191990 (Bioorganic & medicinal chemistry, 2016)
Where a name gives a salt, the structure may show the parent alone.

Key:
Parental OVCAR-8 cells = test: Cell proliferation; type: cell-based; conditions: Homo sapiens, OVCAR-8, 96 h, read-out: Parental OVCAR-8 IC50 (µM) ± SD
[1] = test system: β-III overexpressing HeLa cells; test: Cell proliferation; type: cell-based
[2] = target: T1, purified bovine brain tubulin (Bos taurus, UniProt P81947+Q6B856); test: Tubulin assembly assay; type: biochemical; conditions: ratio of tubulin assembly IC50 vs 5
WT HeLa cells = test: Cell proliferation; type: cell-based; conditions: Homo sapiens, 96 h, read-out: WT HeLa IC50 (µM) ± SD
[3] = target: T1, purified bovine brain tubulin; conditions: read-out: tubulin assembly IC50 (µM) ± SD; cited from earlier work
[4] = test system: BLBC MDA-MB-435 and U251 glioma xenografts, 4T1 triple negative breast allograft; conditions: cited from earlier work
[5] = test system: Pgp overexpressing NCI/ADR-RES cells; test: Cell proliferation; type: cell-based; conditions: Homo sapiens, 96 h, read-out: Pgp overexpressing NCI/ADR-RES IC50 (µM) ± SD

T1 sequence (P81947 whole entry): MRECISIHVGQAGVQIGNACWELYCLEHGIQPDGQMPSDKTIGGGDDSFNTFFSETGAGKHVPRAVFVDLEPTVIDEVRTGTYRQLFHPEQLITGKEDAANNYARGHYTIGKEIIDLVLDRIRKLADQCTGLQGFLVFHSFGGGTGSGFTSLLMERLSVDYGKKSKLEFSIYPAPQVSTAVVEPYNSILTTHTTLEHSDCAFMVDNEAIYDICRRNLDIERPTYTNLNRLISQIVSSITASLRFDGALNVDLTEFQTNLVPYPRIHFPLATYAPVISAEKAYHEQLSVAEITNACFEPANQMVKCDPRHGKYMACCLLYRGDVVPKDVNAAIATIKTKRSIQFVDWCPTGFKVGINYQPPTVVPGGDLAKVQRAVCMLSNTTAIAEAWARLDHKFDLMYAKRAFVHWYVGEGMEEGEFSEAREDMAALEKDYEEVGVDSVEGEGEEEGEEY
T1 sequence (Q6B856 whole entry): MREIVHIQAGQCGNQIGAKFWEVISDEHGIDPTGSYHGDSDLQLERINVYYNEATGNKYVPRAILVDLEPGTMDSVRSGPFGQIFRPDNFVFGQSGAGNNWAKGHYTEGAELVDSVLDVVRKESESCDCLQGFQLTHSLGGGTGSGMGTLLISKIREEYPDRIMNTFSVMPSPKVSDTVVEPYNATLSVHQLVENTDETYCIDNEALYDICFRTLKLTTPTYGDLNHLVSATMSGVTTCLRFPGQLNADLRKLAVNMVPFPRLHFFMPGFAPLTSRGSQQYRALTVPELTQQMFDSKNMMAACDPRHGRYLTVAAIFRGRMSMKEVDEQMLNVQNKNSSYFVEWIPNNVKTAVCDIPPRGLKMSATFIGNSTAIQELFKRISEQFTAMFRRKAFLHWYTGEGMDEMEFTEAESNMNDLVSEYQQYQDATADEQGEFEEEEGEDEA

COc1ccc2c(c1)CCCN2c1nc(C)nc2c(Cc3ccccc3)c[nH]c12 [5·HCl, 1-(7-benzyl-2-methyl-5H-pyrrolo[3,2-d]pyrimidin-4-yl)-6-methoxy-1,2,3,4-tetrahydroquinoline hydrochloride]
IC50 (Parental OVCAR-8 cells): 0.12 ± 0.004 µM

COc1ccc(N(C)c2nc(C)nc3c(Cc4ccccc4)cn(C)c23)cc1.Cl [7·HCl, 7-benzyl-N-(4-methoxyphenyl)-N,2,5-trimethyl-5H-pyrrolo[3,2-d]pyrimidin-4-amine hydrochloride]
fold less potent in βIII-tubulin overexpressing HeLa than in wild type HeLa ([1]; isogenic HeLa cell line pair): equal potency
fold more potent than 5 in tubulin assembly [2]: ~7 fold

COc1ccc(/C=C\c2cc(OC)c(OC)c(OC)c2)cc1O [CA, combretastatin A-4]
IC50 (WT HeLa cells): 0.0018 ± 0.0004 µM

COc1ccc(N(C)c2nc(C)nc3c(Cc4ccccc4)c[nH]c23)cc1 [Compound 3]
IC50 [3]: 21 ± 1 µM
toxicity to animals [4]: without overt toxicity
tumor size and vascularity ([4]; two flank xenograft models and 4T1 orthotopic allograft): reduced tumor size and vascularity

CC(=O)O[C@H]1C(=O)[C@@]2(C)[C@H]([C@H](OC(=O)c3ccccc3)[C@]3(O)C[C@H](OC(=O)[C@H](O)[C@@H](NC(=O)c4ccccc4)c4ccccc4)C(C)=C1C3(C)C)[C@]1(OC(C)=O)CO[C@@H]1C[C@@H]2O [Paclitaxel, paclitaxel]
IC50 (Parental OVCAR-8 cells): 0.005 ± 0.001 µM
IC50 [5]: 2.5 µM
IC50 ([1]; Homo sapiens, HeLa, 96 h, read-out: β-III overexpressing HeLa IC50 (µM) ± SD): 0.016 ± 0.001 µM
